≈ marks a conversion by molar mass, not a printed value. Read-outs that look alike come from different tables or passages of the source.
Legend:
Type in all cases: physicochemical
[1] = Additives for improving re-solubility during storage, sucrose as excipient; settings: lyophilized, Polysorbate 20 0.5%, Sucrose 9.6%
Description: First, Polysorbate 20 was dissolved in distilled water in a concentration of 0.5%, and sucrose and a variety of additives such concentrations as listed in Table 9. Next, 20 mg of the active component (KRN7000) was weighed and stirred in 100 ml of the solvents in a heated bath to 80° C. for 20 minutes in order to form a solution. After cooling with running water, the mixture was filtered through a 0.22 μm filter, and transparent colorless glass vials having a volume of 5 ml were charged with a 1 ml portion of each of a variety of solutions thus obtained and subjected to lyophilization. Lyophilization was carried out under the condition of preliminary freezing at −40° C. for 2 hours and drying at −20° C. for 24 hours, 10° C. for 12 hours, and finally at 25° C. for 5 hours to give the lyophilized product. The degree of vacuum was set at 0.1 Torr or less during drying step.
After the lyophilization step, the lyophilized composition thus obtained was stored at 25° C. or 50° C. , or at both of these temperatures. After storage at 25° C. for 1 month or at 50° C. for 3 days, the lyophilized composition was reconstituted in 1 ml of distilled water for injection, left standing for 30 minutes, and solubility was judged when the foams generated on reconstitution disappeared. The samples judged in solution were further stored, and judged again of their solubility after storage at 25° C. for 4 months or at 50° C. for 2 weeks.
The solubility was judged by cleaning the outside of the vial and placing it beneath the white light source in a darkroom for observation with naked eye at the position of a luminous intensity of about 5,000 lux. When the sample was clear with no precipitates, it was judged that the active component was dissolved.

[2] = Selection of a solvent for the active component: solubility judged by naked eye; settings: thermodynamic from solid, read-out: Judgment of solubility (by naked eye)
Description: First, 1 mg of the active component (KRN7000) was weighed and stirred in 100 ml of a variety of solvents (Table 3) in a heated bath to 80° C. for 20 minutes in order to form a solution having a concentration of 10 μg/ml. With respect to the solvents which were judged to have successfully dissolved 10 μg/ml of the active component, dissolution was further tried in the same manner as above in order to form a solution having a concentration of 100 μg/ml. With respect to the solvents which were judged to have successfully dissolved 100 μg/ml of the active component, dissolution was further tried in the same manner as above in order to form a solution having a concentration of 200 μg/ml. After cooling with running water, the solubility of the component was judged.
The solubility of the component was judged by the test described below. First, transparent colorless glass vials having a volume of 5 ml were charged with about 1.5 ml portion of each sample and sealed up. The vial was cleaned outside and placed beneath the white light source in a darkroom for observation with naked eye at the position of a luminous intensity of about 5,000 lux. When the sample was clear with no precipitates, it was judged that the active component was dissolved.

[3] = Cooling condition after dissolution with heating 1: turbidity (absorbance 660 nm, kaolin standard); settings: Polysorbate 20 0.5%, histidine 0.75%, sucrose 5.6%; cooling 73° C. → 30° C., 23 minutes; reconstituted in 1 ml distilled water
Description: First, Polysorbate 20 was dissolved in distilled water in a concentration of 0.5%, histidine in a concentration of 0.75%, and sucrose in a concentration of 5.6%. Next, 800 mg of the active component (KRN7000) was weighed and stirred in 4 liters of the solvent under heating at 73° C. for 30 minutes in order to form a solution. After dissolution, the mixture was divided into about 500 ml portions, cooled with stirring from 73° C. to 30° C. (6 minutes), from 73° C. to 30° C. (23 minutes), and from 73° C. to 30° C. (120 minutes). […]
The turbidity of the solutions prepared respective cooling conditions before or after the filtration step, and the lyophilized composition thus obtained which were reconstituted after leaving standing at room temperature (25° C. ) for 3 hours from the lyophilization step, were measured. In this connection, the lyophilized composition was reconstituted in 1 ml of distilled water for injection, left standing for 30 minutes, and turbidity was measured when the foams generated on reconstitution disappeared.
The turbidity was measured by the following method: various dilutions including 50-fold dilution (kaolin 2 μg/ml, turbidity 2.00), 100-fold dilution (kaolin 1 μg/ml, turbidity 1.00), and 200-fold dilution (kaolin 0.5 μg/ml, turbidity 0.50) were prepared by diluting the turbidity standard (kaolin, 0.1 mg/ml) with distilled water. […]

Re-solubility after storage (by naked eye) ([1]; Arginine, 0.1%, 50° C., 3 days): + (not dissolved (or deposited))
Re-solubility after storage (by naked eye) ([1]; Glycerol, 1%, 25° C., 1 month): + (not dissolved (or deposited))
Re-solubility after storage (by naked eye) ([1]; Glycine, 0.1%, 50° C., 3 days): + (not dissolved (or deposited))
Re-solubility after storage (by naked eye) ([1]; Glycine, 1%, 50° C., 3 days): + (not dissolved (or deposited))
Re-solubility after storage (by naked eye) ([1]; Histidine, 2%, 50° C., 2 weeks): − (dissolved)
Re-solubility after storage (by naked eye) ([1]; Histidine, 2%, 50° C., 3 days): − (dissolved)
Re-solubility after storage (by naked eye) ([1]; Pluronic F68, 0.1%, 25° C., 1 month): − (dissolved)
Re-solubility after storage (by naked eye) ([1]; Pluronic F68, 0.1%, 25° C., 4 month): + (not dissolved (or deposited))
Re-solubility after storage (by naked eye) ([1]; Pluronic F68, 1%, 25° C., 1 month): − (dissolved)
Re-solubility after storage (by naked eye) ([1]; Pluronic F68, 1%, 25° C., 4 month): + (not dissolved (or deposited))
Re-solubility after storage (by naked eye) ([1]; Propylene glycol, 1%, 25° C., 1 month): + (not dissolved (or deposited))
Re-solubility after storage (by naked eye) ([1]; Sodium deoxycholate, 0.1%, 25° C., 1 month): − (dissolved)
Re-solubility after storage (by naked eye) ([1]; Sodium deoxycholate, 0.1%, 25° C., 4 month): + (not dissolved (or deposited))
Re-solubility after storage (by naked eye) ([1]; Sodium deoxycholate, 1%, 25° C., 1 month): − (dissolved)
Re-solubility after storage (by naked eye) ([1]; Sodium deoxycholate, 1%, 25° C., 4 month): − (dissolved)
Re-solubility after storage (by naked eye) ([1]; Sodium deoxycholate, 1%, 50° C., 2 weeks): − (dissolved)
Re-solubility after storage (by naked eye) ([1]; Sodium deoxycholate, 1%, 50° C., 3 days): − (dissolved)
Re-solubility after storage (by naked eye) ([1]; no additive, 25° C., 1 month): − (dissolved)
Re-solubility after storage (by naked eye) ([1]; no additive, 25° C., 4 month): + (not dissolved (or deposited))
Re-solubility after storage (by naked eye) ([1]; no additive, 50° C., 3 days): + (not dissolved (or deposited))
solubility at 20 min ([2]; 0.5% Cremophor, 80 °C, aqueous with cosolvent or surfactant or cyclodextrin, solvent 0.5% Cremophor, KRN7000 10 μg/ml): < 10 µg/mL
solubility at 20 min ([2]; 0.5% HCO 50, 80 °C, aqueous with cosolvent or surfactant or cyclodextrin, solvent 0.5% HCO 50, KRN7000 10 μg/ml): < 10 µg/mL
solubility at 20 min ([2]; 0.5% HCO 60, 80 °C, aqueous with cosolvent or surfactant or cyclodextrin, solvent 0.5% HCO 60, KRN7000 10 μg/ml): < 10 µg/mL
solubility at 20 min ([2]; 0.5% Polyoxamer 188, 80 °C, aqueous with cosolvent or surfactant or cyclodextrin, solvent 0.5% Polyoxamer 188, KRN7000 10 μg/ml): < 10 µg/mL
solubility at 20 min ([2]; 0.5% Polysorbate 20, 80 °C, aqueous with cosolvent or surfactant or cyclodextrin, solvent 0.5% Polysorbate 20, KRN7000 10 μg/ml): > 10 µg/mL
solubility at 20 min ([2]; 0.5% Polysorbate 20, 80 °C, aqueous with cosolvent or surfactant or cyclodextrin, solvent 0.5% Polysorbate 20, KRN7000 100 μg/ml): > 100 µg/mL
solubility at 20 min ([2]; 0.5% Polysorbate 20, 80 °C, aqueous with cosolvent or surfactant or cyclodextrin, solvent 0.5% Polysorbate 20, KRN7000 200 μg/ml): > 200 µg/mL
solubility at 20 min ([2]; 0.5% Polysorbate 80, 80 °C, aqueous with cosolvent or surfactant or cyclodextrin, solvent 0.5% Polysorbate 80, KRN7000 10 μg/ml): > 10 µg/mL
solubility at 20 min ([2]; 0.5% Polysorbate 80, 80 °C, aqueous with cosolvent or surfactant or cyclodextrin, solvent 0.5% Polysorbate 80, KRN7000 100 μg/ml): 10 to 100 µg/mL (≈ 11.7 to 117 µM)
solubility at 20 min ([2]; 1N HCl, 80 °C, simulated gastric fluid, solvent 1N HCl, KRN7000 10 μg/ml): < 10 µg/mL
solubility at 20 min ([2]; 1N NaOH, 80 °C, aqueous buffer, solvent 1N NaOH, KRN7000 10 μg/ml): < 10 µg/mL
solubility at 20 min ([2]; Distilled water, 80 °C, water, solvent Distilled water, KRN7000 10 μg/ml): < 10 µg/mL
solubility at 20 min ([2]; Ethanol, 80 °C, organic solvent or mixture, solvent Ethanol, KRN7000 10 μg/ml): > 10 µg/mL
solubility at 20 min ([2]; Ethanol, 80 °C, organic solvent or mixture, solvent Ethanol, KRN7000 100 μg/ml): > 100 µg/mL
solubility at 20 min ([2]; Ethanol, 80 °C, organic solvent or mixture, solvent Ethanol, KRN7000 200 μg/ml): > 200 µg/mL
solubility at 20 min ([2]; Glycerol, 80 °C, organic solvent or mixture, solvent Glycerol, KRN7000 10 μg/ml): > 10 µg/mL
solubility at 20 min ([2]; Glycerol, 80 °C, organic solvent or mixture, solvent Glycerol, KRN7000 100 μg/ml): 10 to 100 µg/mL (≈ 11.7 to 117 µM)
solubility at 20 min ([2]; Macrogol 400, 80 °C, organic solvent or mixture, solvent Macrogol 400, KRN7000 10 μg/ml): > 10 µg/mL
solubility at 20 min ([2]; Macrogol 400, 80 °C, organic solvent or mixture, solvent Macrogol 400, KRN7000 100 μg/ml): 10 to 100 µg/mL (≈ 11.7 to 117 µM)
solubility at 20 min ([2]; Propylene glycol, 80 °C, organic solvent or mixture, solvent Propylene glycol, KRN7000 10 μg/ml): > 10 µg/mL
solubility at 20 min ([2]; Propylene glycol, 80 °C, organic solvent or mixture, solvent Propylene glycol, KRN7000 100 μg/ml): 10 to 100 µg/mL (≈ 11.7 to 117 µM)
Turbidity Lyophilized composition [3]: 0.36
SMILES: CCCCCCCCCCCCCCCCCCCCCCCCCC(=O)N[C@@H](CO[C@H]1O[C@H](CO)[C@H](O)[C@H](O)[C@H]1O)[C@H](O)[C@H](O)CCCCCCCCCCCCCC [KRN7000, (2S,3S,4R)-1-(α-D-galactopyranosyloxy)-2-hexacosanoylamino-3,4-octadecanediol]

From patent US6417167B1, “Lyophilized compositions containing shingoglycolipid and process for preparing them” (Kirin Beer Kabushiki Kaisha, priority 1997, dated 2002)
